Columns and labels:
Type in all cases: in vivo, human
[1] = test system: healthy male subjects; experiment: Experiment 1: effect of phosphorus ingestion on oral glucose tolerance test (OGTT)
Method: (§1) The example was comprised of two experiments. Healthy male subjects were recruited to perform the experiments (Table 1). Placebo (cellulose) or P (125 mg of potassium phosphate per tablet) tablets, which had similar weight and color, were administered to subjects in a randomized order to prevent order-of-treatment effect. The consent forms were obtained from patients.
Seven overnight fasted subjects (age (mean±SEM): 23.2±1.83 years; BMI: 22.65±0.82 kg/m2) (Table 1: Experiment 1) were asked to attend 3 experimental sessions that were separated by a minimum of 3 days. Sessions included the consumption of either 500 mg of P (4 tablets), a glucose solution (75 g glucose) with 4 Placebo tablets, or a glucose solution (75 g glucose) with 500 mg P. All were ingested with 250 ml of cold water. Blood was withdrawn at base-line and monitored till 240 min (min) after consumption.
(§2) Serum was separated from collected blood samples and stored at −80° C. for later analysis of glucose, total P, tri-glyceride and insulin. Glucose was measured from venous samples. Insulin sensitivity was estimated by the method of Caumo A, Bergman R N, Cobelli C. Insulin sensitivity from meal tolerance tests in normal subjects: a minimal model index. J Clin. Endocrinol. Metab. 2000; 85:4396-402 and expressed as (×10^4 dl·kg^−1·min^−1·μUml^−1). The method is based on the kinetic of both glucose and insulin through coupling their rate of appearance into circulation following oral glucose ingestion. It is based on simple area under the curve type of calculation and was validated in normal subjects in whom their calculated insulin sensitivity was strongly correlated to that of frequently […] sampled IV glucose test (FSIGT). In addition, index of insulin sensitivity was calculated using the composite equation proposed by Matsuda M, DeFronzo R A. Insulin sensitivity indices obtained from oral glucose tolerance testing: comparison with the euglycemic insulin clamp. Diabetes Care. 1999; 22 (9):1462-7.
(§3) Data are presented as means±SEM. Paired t-tests were used to compare between treatments and to detect the difference from baseline within each treatment. Repeated Measure ANOVA was run to test the effect of treatment groups over time on each of the dependent variables (P, Glucose and insulin). The level of significance was fixed at P <0.05.

[2] = test system: lean male subjects; experiment: Postprandial energy expenditure after high carbohydrate meal with or without P (ventilated hood); conditions: 500 Kcal high carbohydrate meal with 500 mg of P
Method: The objective was to determine the effect of phosphorus (P) ingestion with high carbohydrate meal on postprandial energy expenditure. P ingestion increases postprandial thermogenesis of the subjects.
A cross over study was conducted on six lean male subjects. Subjects received a 500 Kcal high carbohydrate meal (CHO: 65% E; Fat: 31% E; Protein: 4% E) with (500 mg of P) or without P. Energy expenditure was measured at baseline and at 30 minute intervals for 4 hours following meal ingestion using a ventilated hood and canopy system COSMED QUARK CPET unit.

[3] = test system: healthy male subjects; experiment: Experiment 2: effect of pre-phosphorus ingestion (60 min before glucose) on OGTT
Method: as §1
Based on data from experiment 1, peak serum P concentration (60 min) was associated with significant decrease in serum glucose and insulin levels. Thus, experiment 2 was designed to investigate whether P intake one hour prior to glucose ingestion would potentiate the effect of P on postprandial glucose and insulin levels. Eight over-night fasted subjects (age: 27.3±1.68 years; BMI: 23.5±0.97 kg/m^2) (Table 1: Experiment 2) attended 2 experimental sessions that were separated by a minimum of 3 days. Subjects were given placebo or P (500 mg) tab-lets 60 min prior to glucose ingestion. Blood was drawn at baseline (−60 min) and monitored till 240 min relative to glucose ingestion.
as §2, §3

[4] = test system: subjects (unrestrained eaters, stable body weight); experiment: Ad libitum energy intake at subsequent meal after preloads with or without phosphorus; conditions: for Energy intake (ad libitum) at subsequent meal +P: lunch 80 min after preload, mean ± s.d.
Method: A preliminary set of experiments was conducted to investigate the effect of increased phosphorus content of a preload solution on subsequent food intake. The effect of water, sucrose (50 g), fructose (40 g fructose plus 10 g glucose) or glucose (50 g) preloads was examined with or without the addition of 500 mg of phosphorus (mixture of potassium and sodium phosphate). This work was approved by the Institutional Review Board of the American University of Beirut and written informed consent was obtained from all subjects. In brief, participants who had stable body weight for the last 3 months and were unrest-rained eaters as assessed by the three-factor eating questionnaire were selected. All subjects were regular breakfast consumers and were asked to maintain their regular dietary and physical activity habits throughout the course of the example. Subjects were asked to avoid alcohol consumption, as well as any unusual strenuous exercise 24 h before the example. After a minimum of a 12-h fast, they consumed a standard breakfast (440 kcal) 4 h before presenting for the example. Participants chose a time between 1100 and 1400 to be convenient to perform the test; thereafter, they were asked to arrive at the same time on the same day of the week for the second study session. Thus, each experiment used a within-subject design, wherein each participant served as his or her own control.
In each experiment, two chilled preloads (with or without added phosphorus) were offered in a blind randomized order so as to control for the order-of-treatment effect. Each subject presented for two study days separated by a minimum of 1 week. […] At 80 min after the preload, an ad libitum lunch, consisting of standard pizza and water, was offered. Subjects were asked to eat freely until they felt ‘comfortably full’; both food and water intakes were measured. Water intake was measured by weight (g) and food or energy intake (kcal) was obtained from the overall weight of pizza consumed.

[5] = test system: overweight/obese adults; experiment: 12-week double-blind randomized placebo-controlled phosphorus supplementation study
Method: Participants: After approval of the study by the institutional review board at the American University of Beirut (Beirut, Lebanon), 63 adults aged 18 to 45 years with a BMI ≥25 kgm−2, who provided signed informed consent, were recruited from the general public using poster advertisements or direct approach. Exclusion criteria included glomerular filtration rate of 60 ml min−1 per 1.73 m^2, presence of any significant medical disease, pregnancy or lactation, regular administration of drugs that affect body weight and weight change of ≥3% within 3 months before the study. The enrollment of 40 subjects (20 per group) would detect a 10% change in weight of the placebo group, assuming the latter having a mean weight of 90 kg and s.d. of 10 kg, with 80% power and an a of 5%.
This double-blind, randomized, controlled study allocated subjects into placebo group (n=21) or phosphorus group (n=26). Participants were requested to take three tablets containing either 375 mg phosphorus or a placebo (Nutricap Labs, Farmingdale, N.Y., USA) with each main meal (breakfast, lunch and dinner) for 12 weeks. They were asked to maintain regular dietary and physical activity habits during the entire study course and avoid alcohol consumption and any strenuous exercise 24 h before their visits (at baseline, 6 weeks and 12 weeks). Assignment to intervention or control group was made by having the principle investigator (corresponding author) ask the eligible subjects to blindly draw an envelope from a large box of 100 opaque, sealed envelopes (50 for each group), each containing a 2-cm by 2-cm paper with a written code designating intervention or control. There were no detectable differences in size or weight between intervention and control envelopes. In addition, both researchers and participants were blinded for the type of supplements that were similar in size, shape, color and odor.
Subjects were asked to attend the research unit at baseline and after 6 and 12 weeks of participation. At baseline, anthropometric measurements and blood samples were collected and a subjective appetite questionnaire based on Wilson et al. Appetite assessment: simple appetite questionnaire predicts weight loss in community-dwelling adults and nursing home residents. AJCN 2005; 82:1074-1081 was completed. Participants were given a 6-week supply of the allocated supplement and were asked to attend the research unit at the end of this period. At 6 weeks, remaining tablets were collected and counted in order to assess adherence to the allocated intervention. Participants were then given a supply of the same type of supplementation for the consequent 6 weeks and were asked to complete the subjective appetite questionnaire. At 12 weeks, data were collected similar to the baseline visit, and remaining tablets were counted to assess compliance. Individuals who consumed […] of the allocated tablets were excluded. Body weight and height (without shoes) were measured to the nearest 0.1 kg and 0.1 cm, using a calibrated Seca balance (Hamburg, Germany) and a portable stadiometer, respectively. […] Serum phosphorus, creatinine, C-reactive protein, total cholesterol, high-density lipoprotein cholesterol, triglyceride and glucose levels were measured using the Vitros 350 analyzer (Ortho Clinical Diagnostics, Johnson and Johnson, Buckinghamshire, UK). […] Fasting insulin concentration was measured using the ELISA kit (Diametra Millipore, Billerica, Mass., USA). […]

[6] = Experiment 2 (n = 8), 500 mg P 60 min prior to 75 g glucose, mean ± SEM

[P] [Phosphorus, phosphorus]
Postprandial insulin concentration ([1]; 500 mg P alone): did not alter postprandial insulin concentration | Postprandial serum P ([1]; 500 mg P alone): increased serum P significantly | Decrease in postprandial serum glucose concentration ([1]; 500 mg P alone, during the experimental session (240 min), believed to be the result of fasting): around 5 mg/dl | Insulin sensitivity [29] ([1]; Experiment 1 (n = 7), 500 mg P co-ingested with 75 g glucose, mean ± SEM, Caumo et al. formula): 20.22 ± 6.65 ×10^4 dl·kg^−1·min^−1·μUml^−1 | Insulin sensitivity index [30] ([1]; Experiment 1 (n = 7), 500 mg P co-ingested with 75 g glucose, mean ± SEM, Matsuda composite equation): 7.00 ± 1.06 | Insulin levels vs glucose treatment ([1]; G+P (75 g glucose + 500 mg P), time 60 min, P=0.002): significantly lower | Magnitude of increase in postprandial serum glucose vs glucose treatment ([1]; G+P (75 g glucose + 500 mg P), time 60 min, P=0.016): significantly lower | Postprandial energy expenditure vs placebo ([2]; 4 hours, p=0.007): significantly higher | Fat oxidation (%) ([2]; p=0.022): significant rise | Carbohydrate oxidation (%) ([2]; p=0.023): decreased | Magnitude of insulin increase vs placebo preload ([3]; 500 mg P preload 60 min before 75 g glucose): modestly lower | Serum P levels following P ingestion ([3]; 500 mg P preload 60 min before glucose, time 0 and 15 min, then returned to baseline): increased significantly | Insulin sensitivity [29] [3, 6]: 18.39 ± 3.28 ×10^4 dl·kg^−1·min^−1·μUml^−1 | Insulin sensitivity index [30] [3, 6]: 8.88 ± 0.78 | Energy intake (ad libitum) at subsequent meal +P ([4]; Fructose (40 g fructose plus 10 g glucose) preload with 500 mg added phosphorus): 676 ± 404 kcal | Energy intake (ad libitum) at subsequent meal +P ([4]; Glucose (50 g) preload with 500 mg added phosphorus): 652 ± 291 kcal | Energy intake (ad libitum) at subsequent meal +P ([4]; Sucrose (50 g) preload with 500 mg added phosphorus): 532 ± 341 kcal | Energy intake (ad libitum) at subsequent meal +P ([4]; Water preload with 500 mg added phosphorus): 1119 ± 210 kcal | Reduction in energy intake at the subsequent meal ([4]; phosphorus added to fructose preload): 35% | Reduction in energy intake at the subsequent meal ([4]; phosphorus added to glucose preload): 25% | Reduction in energy intake at the subsequent meal ([4]; phosphorus added to sucrose preload): 33% | Reduction in energy intake at the subsequent meal ([4]; phosphorus added to water preload): 27% | Change in BMI from baseline ([5]; 375 mg phosphorus with each main meal, 12 weeks, 95% CI −0.59 to 0.12, P=0.01 vs placebo): −0.24 kgm−2 | Decrease in body weight from baseline ([5]; 375 mg phosphorus with each main meal, 12 weeks, 95% CI −1.69 to 0.40, P=0.01 vs placebo): 0.65 kg | Reduction in waist circumference from baseline ([5]; 375 mg phosphorus with each main meal, 12 weeks, 95% CI −4.90 to −2.33): 3.62 cm | Changes in subjective appetite scores (appetite, quantity of food to reach fullness, taste of food, number of snacks) vs placebo ([5]; baseline to 12 weeks): significantly reduced | Side effects ([5]; over the experimental period (12 weeks)): No side effects were reported
